Assay results taken from patent US6060043A, “Deodorant composition containing D-amino acid” (The Gillette Company, priority 1998, dated 2000).
In brackets after ≈: the same amount, converted by molar mass.

Legend:
[1] = test system: axillary malodor; experiment: Example 6: axillary malodor evaluation by odor judges, 1.0% β-chloro-D-alanine vs 1.0% β-chloro-L-alanine; format: in vivo, human; parameters: key to 24 Hour Drop from Control / A-B (drop), D-BCA minus L-BCA: drop in odor score on 0 (no odor) to 10 (very intense) scale; conditions: for 24 Hour Drop from Control: 1.0% in 60% propylene glycol/40% water
Procedure: (§1) BCA was dissolved in a mixture of 60% propylene glycol and 40% water at a final concentration of 1.0%. The pH of the solution was adjusted to about 6.25 with 10 N NaOH. Thirty-nine female panelists applied 0.5 ml of this test solution to either the right or left axilla and 0.5 ml of a comparative solution of 60% propylene glycol and 40% water to the other. The side of application of the test or comparative solutions was assigned in a random fashion. Twenty-four hours after application, each side of the panelists' axilla was judged for odor by a panel of trained odor judges on a scale of 0 (no odor) to 10 (very intense, disagreeable odor). This procedure was performed on four consecutive days. […] Analysis of the clinical results is summarized below:
A test product containing 1.0% β-chloro-D-alanine (BCA)[…] in 60% propylene glycol/40% water was compared to a comparative product containing 1.0% β-chloro-L-alanine in 60% propylene glycol/40% water by application to 50 female test subjects according to the procedure of Example 4.

[2] = test system: Staphylococcus haemolyticus; experiment: Minimum inhibitory concentration (MIC) in axillary bacteria, Staphylococcus strain; format: cell-based
Procedure: (§2) In vitro experiments were conducted in order to determine the ability of several bacterial cell wall synthesis inhibitors to inhibit the growth of axillary bacteria. The minimum inhibitory concentrations (MIC) of β-chloro-D-alanine (BCA), and D-cycloserine were determined in Staphylococcus (Staphylococcus haemolyticus) and Coryneform strains of axillary bacteria as follows: Frozen stock cultures were thawed out and 50 μl of Staphylococcus haemolyticus or 100 μl of Coryneform bacteria were inoculated into 5.0 ml of nutrient media. Bacteria were incubated at 35° C. overnight to produce cultures in log phase growth. A series of tubes was set up into which serial dilutions of BCA or triclosan in nutrient media were added in the range of 0.1 to 0.0001 wt/v % (where 1 g/100 ml=1 wt/v %). The tubes were inoculated with 50 μl of log phase Staphylococcus haemolyticus or Coryneform cultures and incubated at 35° C. overnight. […] The minimum bactericidal concentration (MBC) was determined by adding 50 μl from each clear solution of the MIC experiment into 5.0 ml of fresh nutrient media and incubating overnight at 37° C. […] The MIC of BCA was thus determined to be 0.1 wt/v % and 0.001 wt/v % in Staphylococcus haemolyticus and Coryneforms, respectively. The MIC of D-cycloserine was thus determined to be 0.01 wt/v % and 0.005 wt/v % in Staphylococcus haemolyticus and Coryneforms, respectively. By comparison, the MIC of the common antibacterial deodorant compound triclosan is 0.01 wt/v % and 0.1 wt/v % in Staphylococcus haemolyticus and Coryneforms, respectively.

[3] = test system: axillary malodor; experiment: Example 4: axillary malodor evaluation by trained odor judges, 1.0% BCA vs vehicle; format: in vivo, human; conditions: for 24 hours drop from untreated Control / Malodor Evaluation (score): 1.0% BCA; for Malodor Evaluation (score): 24 h after application, scale 0 to 10
Procedure: as §1
Significance was measured in a two-tailed T-test al 95% confidence level and n=number of subjects.

[4] = test system: Coryneform bacteria; experiment: Minimum inhibitory concentration (MIC) in axillary bacteria, Coryneform strain; format: cell-based, Coryneform strains of axillary bacteria
Procedure: as §2

[5] = In vivo test for axillary irritation of 1.0% BCA; parameters: species or system human; conditions: 1.0% in 60% propylene glycol/40% water, pH about 6.25, 1.0 ml, four consecutive days, seven panelists
Procedure: In vivo experiments were conducted to determine if 1.0% solutions of BCA were irritating to axillary skin. BCA was dissolved in a mixture of 60% propylene glycol and 40% water at a final concentration of 1.0%. The pH of the solution was adjusted to about 6.25 with 10 N NaOH. Seven panelists applied 1.0 ml of this test solution to a cotton applicator swab and applied the solution to either the right or left axilla. 1.0 ml of a control solution of 60% propylene glycol and 40% water was similarly applied to the other axilla. The side of application of the test or control solutions was assigned in a random fashion. This procedure was performed on four consecutive days. Axilla were monitored by a nurse for signs of skin irritation.

[6] = test system: β-lyase; experiment: Sniff vial test: malodor formation from precursors by whole Staphylococcus haemolyticus cells (beta-lyase inhibition); format: cell-based; conditions: 31-0.625 mM, phosphate buffer pH 6.8, 30 minutes at 35° C.; judged by smelling
Procedure: BCA was tested for its ability to prevent Staphylococcus haemolyticus from metabolizing sweat to form malodor. Log-phase cultures of Staphylococcus haemolyticus were incubated with various concentrations of BCA (31-0.625 mM) in phosphate buffer (pH 6.8) for 30 minutes at 35° C. The cell/BCA mixture was then added to a "sniff vial" containing malodor precursors and incubated at 35° C. for an additional 30 minutes. Malodor compounds were then extracted from the mixture with chloroform and malodor was judged by spotting 10 μl of chloroform extracts onto bibulous paper and smelling. […] In contrast, the β-lyase inhibitor aminooxyacetic acid (AOA) consistently prevents malodor in the above assay at concentrations of 5.0 mM.

N[C@H](CCl)C(=O)O [BCA, β-chloro-D-alanine]
A-B (drop), D-BCA minus L-BCA ([1]; composite): 0.436 | 24 Hour Drop from Control ([1]; composite): 1.519 | Control of malodor, BCA test product versus 1.0% β-chloro-L-alanine comparative product ([1]; measurements 2-4 and composite, 95% level of confidence, not the first measurement): significantly more effective | A-B (drop), D-BCA minus L-BCA ([1]; post-application measurement 1): 0.166 | 24 Hour Drop from Control ([1]; post-application measurement 1): 1.079 | A-B (drop), D-BCA minus L-BCA ([1]; post-application measurement 2): 0.452 | 24 Hour Drop from Control ([1]; post-application measurement 2): 1.492 | A-B (drop), D-BCA minus L-BCA ([1]; post-application measurement 3): 0.665 | 24 Hour Drop from Control ([1]; post-application measurement 3): 1.678 | A-B (drop), D-BCA minus L-BCA ([1]; post-application measurement 4): 0.529 | 24 Hour Drop from Control ([1]; post-application measurement 4): 1.862 | MIC [2]: 1000 µg/mL (≈ 8.09 mM) | Axillary skin irritation ([3]; 1.0% in 60% propylene glycol/40% water, 0.5 ml, four consecutive days, thirty-nine female panelists): No incidences of irritation were reported | Deodorant efficacy versus 60% propylene glycol/40% water comparative product ([3]; 95% confidence level, measurements 3, 4 and composite): significantly more effective | A-B (drop of comparative product minus drop of BCA product) ([3]; composite): -0.29 | 24 hours drop from untreated Control ([3]; composite): 0.96 | Malodor Evaluation (score) ([3]; measurement 1): 4.18 | Malodor Evaluation (score) ([3]; measurement 2): 3.6 | Malodor Evaluation (score) ([3]; measurement 3): 3.3 | Malodor Evaluation (score) ([3]; measurement 4): 3.49 | A-B (drop of comparative product minus drop of BCA product) ([3]; post-application measurement 1): 0.11 | 24 hours drop from untreated Control ([3]; post-application measurement 1): 0.41 | A-B (drop of comparative product minus drop of BCA product) ([3]; post-application measurement 2): -0.21 | 24 hours drop from untreated Control ([3]; post-application measurement 2): 0.99 | A-B (drop of comparative product minus drop of BCA product) ([3]; post-application measurement 3): -0.50 | 24 hours drop from untreated Control ([3]; post-application measurement 3): 1.29 | A-B (drop of comparative product minus drop of BCA product) ([3]; post-application measurement 4): -0.62 | 24 hours drop from untreated Control ([3]; post-application measurement 4): 1.10 | MIC [4]: 10 µg/mL (≈ 0.0809 mM) | Axillary skin irritation [5]: No incidences of irritation were reported | Inhibition of malodor formed by staphylococcal metabolism of precursors [6]: did not inhibit malodor
